In paper PMC10745491 (Frontiers in Cellular Neuroscience, 2023):
Read-outs that look alike come from different tables or passages of the source. Peptide text beside a SMILES is read from it.

Legend:
[1] = molecular target: ACE (Homo sapiens, UniProt P12821)
[2] = molecular target: xanthine oxidase / superoxide O2-scavenging (Bos taurus, UniProt P80457)
[3] = molecular target: 5-HT transporter (Homo sapiens, UniProt P31645)
[4] = molecular target: rat OXTR (Rattus norvegicus, UniProt P70536)
[5] = molecular target: PPARgamma (Homo sapiens, UniProt P37231)
[6] = molecular target: A1 (Homo sapiens, UniProt P30542); assay: radioligand binding assay
[7] = system: PFC layer 5 pyramidal neurons; conditions: rat, in vivo
[8] = molecular target: FP (Homo sapiens, UniProt P43088); format: binding
[9] = molecular target: GSK3beta (Homo sapiens, UniProt P49841)
[10] = molecular target: CDK2 (Homo sapiens, UniProt P24941)
[11] = system: Ca2+ channel; format: binding, human
[12] = molecular target: kappa (Homo sapiens, UniProt P41145)
[13] = molecular target: 5-HT3 (Homo sapiens, UniProt P46098)
[14] = system: PCP; assay: radioligand binding assay; design: species or system human
[15] = molecular target: T1, human OXTR (Homo sapiens, UniProt P30559); assay: cell-based
[16] = molecular target: acetylcholinesterase (Homo sapiens, UniProt P22303); format: biochemical
[17] = molecular target: NE transporter (Homo sapiens, UniProt P23975)
[18] = system: sigma
[19] = molecular target: GR (Homo sapiens, UniProt P04150)
[20] = molecular target: PDE5 (Homo sapiens, UniProt O76074); format: biochemical
[21] = molecular target: H1 (Homo sapiens, UniProt P35367)
[22] = in vivo, sc
[23] = system: Na+ channel; assay: radioligand binding assay; design: species or system human
[24] = molecular target: M4 (Homo sapiens, UniProt P08173); format: binding
[25] = molecular target: T1, human OXTR
[26] = molecular target: rat V1aR (Rattus norvegicus, UniProt P30560); assay: cell-based; format: cell-based
[27] = molecular target: 5-HT2B (Homo sapiens, UniProt P41595); assay: radioligand binding assay
[28] = molecular target: HIV-1 protease (Human immunodeficiency virus type 1 group M subtype B, UniProt P04585)
[29] = molecular target: M2 (Homo sapiens, UniProt P08172)
[30] = molecular target: MAO-A (Homo sapiens, UniProt P21397); format: biochemical
[31] = molecular target: beta 1 (Homo sapiens, UniProt P08588)
[32] = system: mPFC transcriptome; conditions: rat, in vivo, 0.07 mg/kg
[33] = molecular target: 5-HT1A (Homo sapiens, UniProt P08908)
[34] = molecular target: human V1aR (Homo sapiens, UniProt P37288); assay: cell-based
[35] = molecular target: N muscle-type (Homo sapiens, UniProt P02708+P07510+Q07001); format: binding

MAO-A, sequence (P21397 whole entry): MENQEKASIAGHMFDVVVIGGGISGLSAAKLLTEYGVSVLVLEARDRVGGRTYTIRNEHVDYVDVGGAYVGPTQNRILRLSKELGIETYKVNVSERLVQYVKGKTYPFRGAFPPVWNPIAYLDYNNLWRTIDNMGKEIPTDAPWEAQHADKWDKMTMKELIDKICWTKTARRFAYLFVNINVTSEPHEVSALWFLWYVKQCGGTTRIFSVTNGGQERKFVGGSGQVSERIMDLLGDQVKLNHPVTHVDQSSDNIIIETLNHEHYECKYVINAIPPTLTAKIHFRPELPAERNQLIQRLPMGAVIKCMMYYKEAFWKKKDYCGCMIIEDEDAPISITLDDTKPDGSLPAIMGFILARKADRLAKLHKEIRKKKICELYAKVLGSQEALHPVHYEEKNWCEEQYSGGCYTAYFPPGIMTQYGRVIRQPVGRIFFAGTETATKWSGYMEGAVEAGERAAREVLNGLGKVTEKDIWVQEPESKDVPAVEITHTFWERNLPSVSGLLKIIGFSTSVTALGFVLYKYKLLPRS
H1, sequence (P35367 whole entry): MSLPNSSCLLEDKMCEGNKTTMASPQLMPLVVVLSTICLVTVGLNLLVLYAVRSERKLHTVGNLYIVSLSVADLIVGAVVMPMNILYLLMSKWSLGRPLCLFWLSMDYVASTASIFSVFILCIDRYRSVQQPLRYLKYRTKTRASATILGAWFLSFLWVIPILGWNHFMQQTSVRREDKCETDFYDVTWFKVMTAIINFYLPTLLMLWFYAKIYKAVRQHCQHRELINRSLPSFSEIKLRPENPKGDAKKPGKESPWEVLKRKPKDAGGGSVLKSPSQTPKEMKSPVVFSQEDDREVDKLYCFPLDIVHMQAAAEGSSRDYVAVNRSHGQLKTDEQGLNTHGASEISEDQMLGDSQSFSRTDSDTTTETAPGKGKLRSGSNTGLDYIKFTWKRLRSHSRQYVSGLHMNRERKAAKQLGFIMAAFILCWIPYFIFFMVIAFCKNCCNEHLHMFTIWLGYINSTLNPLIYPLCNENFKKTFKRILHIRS
T1 sequence (P30559 whole entry): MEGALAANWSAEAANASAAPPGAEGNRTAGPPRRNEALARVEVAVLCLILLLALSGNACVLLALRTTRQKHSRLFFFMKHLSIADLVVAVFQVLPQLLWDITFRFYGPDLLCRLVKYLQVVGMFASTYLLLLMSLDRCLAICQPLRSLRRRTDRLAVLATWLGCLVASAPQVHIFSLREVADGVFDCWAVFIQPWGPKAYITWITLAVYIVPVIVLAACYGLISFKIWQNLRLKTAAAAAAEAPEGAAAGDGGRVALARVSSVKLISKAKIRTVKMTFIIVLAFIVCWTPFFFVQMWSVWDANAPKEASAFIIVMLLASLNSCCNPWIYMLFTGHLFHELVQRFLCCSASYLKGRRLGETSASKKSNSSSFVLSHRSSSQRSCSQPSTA
xanthine oxidase / superoxide O2-scavenging, sequence (P80457 2-1332): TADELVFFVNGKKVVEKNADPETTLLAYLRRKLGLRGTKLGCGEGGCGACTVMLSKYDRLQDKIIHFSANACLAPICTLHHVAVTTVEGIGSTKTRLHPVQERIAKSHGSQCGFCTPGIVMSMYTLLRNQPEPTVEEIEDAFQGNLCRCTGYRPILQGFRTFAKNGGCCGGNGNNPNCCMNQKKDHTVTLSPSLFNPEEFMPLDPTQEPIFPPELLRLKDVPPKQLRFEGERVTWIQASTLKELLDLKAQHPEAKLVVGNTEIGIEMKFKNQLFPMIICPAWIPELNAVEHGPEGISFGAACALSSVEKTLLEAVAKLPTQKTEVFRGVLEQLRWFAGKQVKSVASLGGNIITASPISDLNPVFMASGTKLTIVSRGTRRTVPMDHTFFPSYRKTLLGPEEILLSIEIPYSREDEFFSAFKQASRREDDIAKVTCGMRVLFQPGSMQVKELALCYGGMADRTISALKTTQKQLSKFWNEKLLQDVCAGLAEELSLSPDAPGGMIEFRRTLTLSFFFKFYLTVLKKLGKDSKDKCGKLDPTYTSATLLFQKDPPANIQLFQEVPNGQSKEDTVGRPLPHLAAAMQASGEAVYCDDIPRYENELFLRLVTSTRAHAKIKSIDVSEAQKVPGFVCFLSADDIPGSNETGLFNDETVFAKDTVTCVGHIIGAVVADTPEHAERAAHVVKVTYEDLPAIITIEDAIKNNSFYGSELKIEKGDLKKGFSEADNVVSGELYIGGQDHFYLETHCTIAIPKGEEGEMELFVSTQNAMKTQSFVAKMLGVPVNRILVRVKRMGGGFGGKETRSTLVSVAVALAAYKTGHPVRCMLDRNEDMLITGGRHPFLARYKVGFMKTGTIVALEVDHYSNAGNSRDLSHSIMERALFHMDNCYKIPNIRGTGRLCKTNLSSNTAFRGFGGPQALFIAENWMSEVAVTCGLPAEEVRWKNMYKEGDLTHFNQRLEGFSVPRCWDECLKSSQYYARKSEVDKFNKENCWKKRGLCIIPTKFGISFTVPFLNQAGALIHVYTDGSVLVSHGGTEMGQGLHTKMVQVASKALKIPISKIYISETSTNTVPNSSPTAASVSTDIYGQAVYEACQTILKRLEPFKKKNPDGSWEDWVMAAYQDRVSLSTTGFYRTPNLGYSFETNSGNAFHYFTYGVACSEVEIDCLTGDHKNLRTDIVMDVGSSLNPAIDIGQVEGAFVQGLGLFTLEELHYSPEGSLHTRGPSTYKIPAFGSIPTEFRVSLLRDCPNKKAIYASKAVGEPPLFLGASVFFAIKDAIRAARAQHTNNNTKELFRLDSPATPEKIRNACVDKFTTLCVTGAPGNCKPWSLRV
GR, sequence (P04150 whole entry): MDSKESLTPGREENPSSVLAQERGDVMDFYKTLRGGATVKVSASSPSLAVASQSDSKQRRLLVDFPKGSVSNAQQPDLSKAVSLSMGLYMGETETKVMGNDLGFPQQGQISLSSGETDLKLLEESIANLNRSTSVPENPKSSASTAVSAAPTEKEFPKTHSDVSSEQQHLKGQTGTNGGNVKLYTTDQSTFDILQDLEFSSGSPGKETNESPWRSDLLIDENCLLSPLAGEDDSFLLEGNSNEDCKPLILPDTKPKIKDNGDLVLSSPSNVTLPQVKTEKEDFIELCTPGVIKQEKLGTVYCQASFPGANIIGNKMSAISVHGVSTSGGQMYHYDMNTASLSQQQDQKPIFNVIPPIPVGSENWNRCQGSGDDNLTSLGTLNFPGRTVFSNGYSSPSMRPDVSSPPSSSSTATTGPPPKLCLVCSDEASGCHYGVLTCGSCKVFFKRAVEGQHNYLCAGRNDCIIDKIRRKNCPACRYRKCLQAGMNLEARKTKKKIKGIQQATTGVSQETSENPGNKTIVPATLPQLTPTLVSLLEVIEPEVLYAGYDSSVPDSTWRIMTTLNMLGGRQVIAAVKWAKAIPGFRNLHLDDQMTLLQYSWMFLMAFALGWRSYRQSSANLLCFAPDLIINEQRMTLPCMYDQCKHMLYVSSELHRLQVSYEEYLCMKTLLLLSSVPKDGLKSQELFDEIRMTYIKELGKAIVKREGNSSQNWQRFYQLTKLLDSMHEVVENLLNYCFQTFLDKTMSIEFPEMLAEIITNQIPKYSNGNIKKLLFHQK
GSK3beta, sequence (P49841 whole entry): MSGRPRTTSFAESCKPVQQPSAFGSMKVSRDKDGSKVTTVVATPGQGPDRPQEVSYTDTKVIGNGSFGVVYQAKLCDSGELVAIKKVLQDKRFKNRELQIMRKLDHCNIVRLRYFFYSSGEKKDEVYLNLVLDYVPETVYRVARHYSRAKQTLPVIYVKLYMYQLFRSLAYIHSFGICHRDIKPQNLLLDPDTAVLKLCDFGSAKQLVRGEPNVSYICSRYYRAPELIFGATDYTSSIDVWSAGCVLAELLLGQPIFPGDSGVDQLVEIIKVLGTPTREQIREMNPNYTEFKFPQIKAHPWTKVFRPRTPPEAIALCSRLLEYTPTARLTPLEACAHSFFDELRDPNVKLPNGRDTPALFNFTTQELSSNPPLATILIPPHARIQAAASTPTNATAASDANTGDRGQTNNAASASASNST
NE transporter, sequence (P23975 whole entry): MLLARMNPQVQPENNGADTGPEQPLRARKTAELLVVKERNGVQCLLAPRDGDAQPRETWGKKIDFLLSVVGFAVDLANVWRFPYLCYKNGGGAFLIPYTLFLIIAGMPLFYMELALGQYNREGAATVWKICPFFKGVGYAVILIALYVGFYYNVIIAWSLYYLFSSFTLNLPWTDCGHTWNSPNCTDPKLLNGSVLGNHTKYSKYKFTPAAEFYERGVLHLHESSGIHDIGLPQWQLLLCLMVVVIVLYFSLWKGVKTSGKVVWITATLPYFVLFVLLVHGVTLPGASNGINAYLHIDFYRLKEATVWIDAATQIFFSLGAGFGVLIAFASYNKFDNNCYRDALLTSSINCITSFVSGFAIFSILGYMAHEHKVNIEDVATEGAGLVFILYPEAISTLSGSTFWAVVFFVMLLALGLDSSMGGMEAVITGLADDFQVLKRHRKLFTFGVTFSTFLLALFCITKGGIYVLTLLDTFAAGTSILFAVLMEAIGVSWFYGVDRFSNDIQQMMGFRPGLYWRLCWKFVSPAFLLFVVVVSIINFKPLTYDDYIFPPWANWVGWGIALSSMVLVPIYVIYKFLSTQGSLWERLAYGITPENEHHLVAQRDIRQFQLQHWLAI
A1, sequence (P30542 whole entry): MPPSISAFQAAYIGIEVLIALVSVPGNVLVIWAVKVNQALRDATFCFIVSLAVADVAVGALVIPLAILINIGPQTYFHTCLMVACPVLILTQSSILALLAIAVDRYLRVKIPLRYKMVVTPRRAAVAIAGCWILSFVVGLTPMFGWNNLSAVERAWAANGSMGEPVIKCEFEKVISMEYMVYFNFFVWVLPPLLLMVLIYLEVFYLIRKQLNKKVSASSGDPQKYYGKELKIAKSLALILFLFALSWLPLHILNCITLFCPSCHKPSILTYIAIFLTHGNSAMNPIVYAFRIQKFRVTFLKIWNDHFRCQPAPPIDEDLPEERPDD

## CC[C@H](C)[C@@H]1NC(=O)[C@H](Cc2ccc(O)cc2)NC(=O)CNC(=O)CC[C@@H](C(=O)N2CC(F)C[C@H]2C(=O)N[C@@H](CC(C)C)C(=O)NCC(N)=O)NC(=O)[C@H](CC(N)=O)NC(=O)[C@H](CCC(N)=O)NC1=O (stereo partly drawn) [RO6958375] (HELM PEPTIDE1{G.Y.I.Q.N.E.[O=C([C@@H]1CC(F)CN1[*:1])[*:2]].L.G.[am]}$PEPTIDE1,PEPTIDE1,1:R1-6:R3$$$V2.0)
[1]
  % Inhibition of Control Specific Binding: -28%
  Mean / % of Control Specific Binding: 128.2%
[2]
  % Inhibition of Control Specific Binding: 8%
  Mean / % of Control Specific Binding: 92.1%
[3]
  % Inhibition of Control Specific Binding: -4%
  Mean / % of Control Specific Binding: 103.5%
[4]
  agonist efficacy and potency relative to oxytocin on rat OXTR: full OXTR agonist and equipotent to oxytocin
[5]
  % Inhibition of Control Specific Binding: -3%
  Mean / % of Control Specific Binding: 103.1%
[6]
  % Inhibition of Control Specific Binding: -4%
  Mean / % of Control Specific Binding: 104.1%
[7]
  current-membrane voltage relationship and input resistance after CPA: normalized
  differences in passive membrane properties between control and CPA rats: not observed
  effect on number of evoked action potentials after CPA: only partially recovered
  effect on rheobase after CPA: fully restored
[7]; 0.07 mg/kg
  AUC of current-voltage (IV) curve (Fig. 5L): 36.9 ± 4.56
[7]; sc, 0.07 mg/kg
  AUC of number of action potentials per current step (Fig. 5J): 9.79 ± 2.74
  input resistance (Rin) at 80 pA (Fig. 5M): 180.7 MΩ
  membrane capacitance, Cm (Fig. 5E): 65.11 pF
  membrane resistance, Rm (Fig. 5D): 77.59 MΩ
  resting membrane potential, Vrest (Fig. 5C): -66.87 mV
  rheobase (Fig. 5K): 209
[8]
  % Inhibition of Control Specific Binding: 3%
  Mean / % of Control Specific Binding: 96.9%
[9]
  % Inhibition of Control Specific Binding: -2%
  Mean / % of Control Specific Binding: 102.1%
[10]
  % Inhibition of Control Specific Binding: 13%
  Mean / % of Control Specific Binding: 87.1%
[11]
  % Inhibition of Control Specific Binding: -36%
  Mean / % of Control Specific Binding: 136%
[12]
  % Inhibition of Control Specific Binding: -13%
  Mean / % of Control Specific Binding: 112.7%
[13]
  % Inhibition of Control Specific Binding: 20%
  Mean / % of Control Specific Binding: 80%
[14]
  % Inhibition of Control Specific Binding: -6%
  Mean / % of Control Specific Binding: 105.5%
[15]
  EC50: 0.025 nM
[16]
  % Inhibition of Control Specific Binding: -2%
  Mean / % of Control Specific Binding: 101.5%
[17]
  % Inhibition of Control Specific Binding: 3%
  Mean / % of Control Specific Binding: 97.2%
[18]
  % Inhibition of Control Specific Binding: 4%
  Mean / % of Control Specific Binding: 96.2%
[19]
  % Inhibition of Control Specific Binding: -9%
  Mean / % of Control Specific Binding: 109.1%
[20]
  % Inhibition of Control Specific Binding: -21%
  Mean / % of Control Specific Binding: 121.4%
[21]
  % Inhibition of Control Specific Binding: -1%
  Mean / % of Control Specific Binding: 100.9%
[22]; 0.03 mg/kg
  highest concentration detected in rat CSF: 0.24 nM
[22]; 0.1 mg/kg
  highest concentration detected in rat CSF: 0.58 nM
[22]; rat
  CNS uptake from plasma: ca. 1%
  brain half-life (CSF kinetic): ca. 70 min
  half-life in plasma: 10 to 15 min
  subcutaneous absorption: rapid
[23]
  % Inhibition of Control Specific Binding: 10%
  Mean / % of Control Specific Binding: 89.6%
[24]
  % Inhibition of Control Specific Binding: -17%
  Mean / % of Control Specific Binding: 116.9%
[25]
  activation of human OXTR: fully activated
[26]
  EC50: > 27 µM
  activity on rat V1aR (inactive up to): > 1 µM
[27]
  % Inhibition of Control Specific Binding: -2%
  Mean / % of Control Specific Binding: 102%
[28]
  % Inhibition of Control Specific Binding: 5%
  Mean / % of Control Specific Binding: 95.3%
[29]
  % Inhibition of Control Specific Binding: -14%
  Mean / % of Control Specific Binding: 113.8%
[30]
  % Inhibition of Control Specific Binding: -15%
  Mean / % of Control Specific Binding: 115%
[31]
  % Inhibition of Control Specific Binding: -5%
  Mean / % of Control Specific Binding: 105.2%
[32]
  CPA-induced transcriptomic changes: partially prevented
[33]
  % Inhibition of Control Specific Binding: 16%
  Mean / % of Control Specific Binding: 84.4%
[34]
  EC50: > 27 µM
[35]
  % Inhibition of Control Specific Binding: 5%
  Mean / % of Control Specific Binding: 94.7%
